{
  "source": "patent US20020064500A1",
  "about": "“Radiotracers for in vivo study of acetylcholinesterase and alzheimer's disease” (priority 1999, published 2002)",
  "key": {"acetylcholinesterase [1]": {"molecular_target": "T1, acetylcholinesterase (Mus musculus, UniProt P21836)", "T1 construct": "from tissue; host or cells: brain regions of CD-1 mice after intravenous injection", "T1 sequence (P21836 32-614)": "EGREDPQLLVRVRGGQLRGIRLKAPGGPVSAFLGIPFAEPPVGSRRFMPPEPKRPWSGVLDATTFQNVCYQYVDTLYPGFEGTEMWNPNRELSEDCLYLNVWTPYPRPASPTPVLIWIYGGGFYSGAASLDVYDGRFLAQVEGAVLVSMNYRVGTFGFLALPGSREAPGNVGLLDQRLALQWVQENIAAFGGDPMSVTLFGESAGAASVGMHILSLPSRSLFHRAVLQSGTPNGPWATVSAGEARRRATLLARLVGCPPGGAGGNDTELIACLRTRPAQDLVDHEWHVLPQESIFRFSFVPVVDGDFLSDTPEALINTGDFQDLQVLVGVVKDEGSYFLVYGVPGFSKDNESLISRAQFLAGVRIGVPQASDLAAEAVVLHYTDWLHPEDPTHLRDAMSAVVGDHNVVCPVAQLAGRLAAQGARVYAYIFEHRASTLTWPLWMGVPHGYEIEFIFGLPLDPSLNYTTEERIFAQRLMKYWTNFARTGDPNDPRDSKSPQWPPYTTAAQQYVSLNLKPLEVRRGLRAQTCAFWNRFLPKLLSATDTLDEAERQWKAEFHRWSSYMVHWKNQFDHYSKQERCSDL", "assay": "Dose response experiment: blocking of compound II brain binding by compound III in mice", "format": "in vivo", "conditions": "5 minutes before compound II i.v.", "procedure": "Male Charles River mice (CD-1) were divided into 5 groups of 3 mice each. Non-radiolabeled compound III was administered to each mouse in increasing doses as follows: group1, saline controls; group 2, 0.01 mg/kg; group 3, 0.1 mg/kg; group 4, 0.3 mg/kg; and group 5,1 mg/kg. Five minutes after the injection with compound III or the saline control, each mouse was administered compound II (421 μCi, 8 μg) by intravenous injection as above. Each mouse was sacrificed by cervical dislocation and brain tissue dissected and the radioactivity of each brain region assayed as described above. The values, averaged over each group of three mice, for the percentage of the administered dose of compound II/gram of brain tissue at each dosage of compound III for each brain region were calculated (FIG. 4 below)."}, "acetylcholinesterase [2]": {"molecular_target": "T1, acetylcholinesterase", "assay": "Kinetic experiment: regional brain biodistribution in mice", "format": "in vivo, male Charles River mice (CD-1)", "conditions": "for percentage of the administered dose/gram of brain tissue (%ID/g): 5 minutes post i.v. injection, mean of 3", "procedure": "21 male Charles River mice (CD-1) were divided into 7 groups of 3 mice each. Each mouse was injected via a tail vein with approximately 350 μCi of compound II (10 μg). Each mouse was sacrificed by cervical dislocation at the following times post injection: group 1 at 5 minutes; group 2 at 15 minutes; group 3 at 30 minutes; group 4 at 45 minutes; group 5 at 60; group 6 at 90 minutes; and group 7 at 120 minutes. At the time of sacrifice of a particular group, the brains of each mouse were quickly removed and dissected on ice. The following regions were collected weighed and assayed for radioactivity: cerebellum, hippocampus, striatum, parietal cortex, thalamus. The following values, averaged over each group of three mice, for the percentage of the administered dose of compound II/gram of brain tissue (%ID/g), were found in the following brain regions at five minutes post injection: striatum (6.19% injected dose/gram tissue); thalamus (4.76%); cortex (4.01%); cerebellum (3.76%); and hippocampus (3.41%)."}, "acetylcholinesterase [3]": {"molecular_target": "acetylcholinesterase (Homo sapiens, UniProt P22303)", "sequence (P22303 32-614)": "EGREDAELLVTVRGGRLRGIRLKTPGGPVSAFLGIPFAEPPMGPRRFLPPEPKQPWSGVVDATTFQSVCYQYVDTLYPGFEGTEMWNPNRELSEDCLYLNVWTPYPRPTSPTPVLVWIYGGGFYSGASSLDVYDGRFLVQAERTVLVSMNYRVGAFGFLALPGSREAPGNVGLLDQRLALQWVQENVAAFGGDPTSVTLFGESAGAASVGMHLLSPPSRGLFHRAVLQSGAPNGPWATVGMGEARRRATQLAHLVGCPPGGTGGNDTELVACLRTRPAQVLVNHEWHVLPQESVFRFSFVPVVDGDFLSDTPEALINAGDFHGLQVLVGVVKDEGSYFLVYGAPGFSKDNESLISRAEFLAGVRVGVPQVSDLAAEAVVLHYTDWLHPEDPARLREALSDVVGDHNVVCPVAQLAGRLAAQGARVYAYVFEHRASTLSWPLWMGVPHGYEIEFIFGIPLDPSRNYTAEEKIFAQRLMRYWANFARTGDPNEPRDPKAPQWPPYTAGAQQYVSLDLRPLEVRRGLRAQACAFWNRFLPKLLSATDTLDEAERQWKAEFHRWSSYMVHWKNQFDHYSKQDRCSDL", "assay": "PET imaging of acetylcholinesterase in a human brain, with and without ARICEPT", "conditions": "for Normalized uptake (nCi/ccBRAIN/nCi/ccPLASMA): healthy human subject, i.v., PET, average of scans after 42 minutes; for Normalized uptake post 5 mg ARICEPT (nCi/ccBRAIN/nCi/ccPLASMA): same subject, 3 hours after oral 5 mg ARICEPT tablet", "quoted_text": "The same imaging study was then performed.\nA thermoplastic mask was used for PET positioning. Use of a thermoplastic mask is routine for PET studies to help immobilize the head and to provide spacial facial landmarks. To produce a brain image, PETwas begun, and 25 scans were obtained in 90 minutes. After each scan, heated venous blood samples were withdrawn from the back of the patient's hand, to measure the amount of the radiolabeled compound in the blood, in units of nCi/cc blood. The brain images were used to calculate nCi/ccBRAIN for each scan. The average of the ratio (nCi/ccBRAIN/nCi/ccPLASMA)control (i.e., tissue radioactivity/plasma radioactivity or nanocurries per cubic centimeter of brain tissue divided by nanocurries per cubic centimeter of blood), over the scans collected after 42 minutes, for each area of the brain, are shown in Table 1.\nBrain images and brain time radioactivity curves were obtained in the same manner as above and the average nCi/ccBRAIN/nCi/ccPLASMA ratio was calculated for each area the brain."}},
  "data": [
    {"smiles": "O=C1Cc2cc3c(CCC4CCN(Cc5ccccc5)CC4)noc3cc2N1", "note": "[compound III, 5,7-dihydro-3-[2-[1-(phenylmethyl)-4-piperidinyl]ethyl]-6H-pyrrolo[3,2-f]-1,2-benzisoxazole-6-one]", "values": [
      {"measurement": "reduction of compound II binding in striatum relative to the saline control", "setting": "acetylcholinesterase [1]; compound III 0.1 mg/kg", "value": 6, "unit": "%"},
      {"measurement": "reduction of compound II binding in striatum relative to the saline control", "setting": "acetylcholinesterase [1]; compound III 0.3 mg/kg", "value": 20, "unit": "%"},
      {"measurement": "reduction of compound II binding in striatum relative to the saline control", "setting": "acetylcholinesterase [1]; compound III 1 mg/kg", "value": 52, "unit": "%"}
    ]},
    {"smiles": "[11CH3]N1C(=O)Cc2cc3c(CCC4CCN(Cc5ccccc5)CC4)noc3cc21", "note": "[compound II, 5,7-dihydro-7-[^11C]-methyl-3-[2-[1-(phenylmethyl)4-piperidinyl]ethyl]-6H-pyrrolo[3,2-f]-1,2-benzisoxazole-6-one]", "values": [
      {"measurement": "highest specific binding defined as striatum-cerebellum", "setting": "acetylcholinesterase [2]; 30 minutes post i.v. injection", "value": 4.33, "unit": "%"},
      {"measurement": "percentage of the administered dose/gram of brain tissue (%ID/g)", "setting": "acetylcholinesterase [2]; cerebellum", "value": 3.76, "unit": "%"},
      {"measurement": "percentage of the administered dose/gram of brain tissue (%ID/g)", "setting": "acetylcholinesterase [2]; cortex", "value": 4.01, "unit": "%"},
      {"measurement": "percentage of the administered dose/gram of brain tissue (%ID/g)", "setting": "acetylcholinesterase [2]; hippocampus", "value": 3.41, "unit": "%"},
      {"measurement": "percentage of the administered dose/gram of brain tissue (%ID/g)", "setting": "acetylcholinesterase [2]; striatum", "value": "6.19 % injected dose/gram tissue"},
      {"measurement": "percentage of the administered dose/gram of brain tissue (%ID/g)", "setting": "acetylcholinesterase [2]; thalamus", "value": 4.76, "unit": "%"},
      {"measurement": "Normalized uptake (nCi/ccBRAIN/nCi/ccPLASMA)", "setting": "acetylcholinesterase [3]; Caudate", "value": 54, "unit": "nCi/ccBRAIN/nCi/ccPLASMA"},
      {"measurement": "Normalized uptake post 5 mg ARICEPT (nCi/ccBRAIN/nCi/ccPLASMA)", "setting": "acetylcholinesterase [3]; Caudate", "value": 19, "unit": "nCi/ccBRAIN/nCi/ccPLASMA"},
      {"measurement": "Normalized uptake (nCi/ccBRAIN/nCi/ccPLASMA)", "setting": "acetylcholinesterase [3]; Cerebellum", "value": 47, "unit": "nCi/ccBRAIN/nCi/ccPLASMA"},
      {"measurement": "Normalized uptake post 5 mg ARICEPT (nCi/ccBRAIN/nCi/ccPLASMA)", "setting": "acetylcholinesterase [3]; Cerebellum", "value": 13, "unit": "nCi/ccBRAIN/nCi/ccPLASMA"},
      {"measurement": "Normalized uptake (nCi/ccBRAIN/nCi/ccPLASMA)", "setting": "acetylcholinesterase [3]; Frontal cortex", "value": 26, "unit": "nCi/ccBRAIN/nCi/ccPLASMA"},
      {"measurement": "Normalized uptake post 5 mg ARICEPT (nCi/ccBRAIN/nCi/ccPLASMA)", "setting": "acetylcholinesterase [3]; Frontal cortex", "value": 7, "unit": "nCi/ccBRAIN/nCi/ccPLASMA"},
      {"measurement": "Normalized uptake (nCi/ccBRAIN/nCi/ccPLASMA)", "setting": "acetylcholinesterase [3]; Hippocampus", "value": 30, "unit": "nCi/ccBRAIN/nCi/ccPLASMA"},
      {"measurement": "Normalized uptake (nCi/ccBRAIN/nCi/ccPLASMA)", "setting": "acetylcholinesterase [3]; Medulla Oblongata", "value": 40, "unit": "nCi/ccBRAIN/nCi/ccPLASMA"},
      {"measurement": "Normalized uptake (nCi/ccBRAIN/nCi/ccPLASMA)", "setting": "acetylcholinesterase [3]; Occipital cortex", "value": 23, "unit": "nCi/ccBRAIN/nCi/ccPLASMA"},
      {"measurement": "Normalized uptake (nCi/ccBRAIN/nCi/ccPLASMA)", "setting": "acetylcholinesterase [3]; Parietal cortex", "value": 27, "unit": "nCi/ccBRAIN/nCi/ccPLASMA"},
      {"measurement": "Normalized uptake post 5 mg ARICEPT (nCi/ccBRAIN/nCi/ccPLASMA)", "setting": "acetylcholinesterase [3]; Parietal cortex", "value": 7, "unit": "nCi/ccBRAIN/nCi/ccPLASMA"},
      {"measurement": "Normalized uptake (nCi/ccBRAIN/nCi/ccPLASMA)", "setting": "acetylcholinesterase [3]; Pons", "value": 36, "unit": "nCi/ccBRAIN/nCi/ccPLASMA"},
      {"measurement": "Normalized uptake (nCi/ccBRAIN/nCi/ccPLASMA)", "setting": "acetylcholinesterase [3]; Putamen", "value": 61, "unit": "nCi/ccBRAIN/nCi/ccPLASMA"},
      {"measurement": "Normalized uptake post 5 mg ARICEPT (nCi/ccBRAIN/nCi/ccPLASMA)", "setting": "acetylcholinesterase [3]; Putamen", "value": 26, "unit": "nCi/ccBRAIN/nCi/ccPLASMA"},
      {"measurement": "Normalized uptake (nCi/ccBRAIN/nCi/ccPLASMA)", "setting": "acetylcholinesterase [3]; Temporal cortex", "value": 26, "unit": "nCi/ccBRAIN/nCi/ccPLASMA"},
      {"measurement": "Normalized uptake (nCi/ccBRAIN/nCi/ccPLASMA)", "setting": "acetylcholinesterase [3]; Thalamus", "value": 33, "unit": "nCi/ccBRAIN/nCi/ccPLASMA"}
    ]}
  ]
}
